The target of test [1] is T1, Alpha-2C adrenergic receptor (Homo sapiens, UniProt P18825).
T1 sequence (P18825 whole entry): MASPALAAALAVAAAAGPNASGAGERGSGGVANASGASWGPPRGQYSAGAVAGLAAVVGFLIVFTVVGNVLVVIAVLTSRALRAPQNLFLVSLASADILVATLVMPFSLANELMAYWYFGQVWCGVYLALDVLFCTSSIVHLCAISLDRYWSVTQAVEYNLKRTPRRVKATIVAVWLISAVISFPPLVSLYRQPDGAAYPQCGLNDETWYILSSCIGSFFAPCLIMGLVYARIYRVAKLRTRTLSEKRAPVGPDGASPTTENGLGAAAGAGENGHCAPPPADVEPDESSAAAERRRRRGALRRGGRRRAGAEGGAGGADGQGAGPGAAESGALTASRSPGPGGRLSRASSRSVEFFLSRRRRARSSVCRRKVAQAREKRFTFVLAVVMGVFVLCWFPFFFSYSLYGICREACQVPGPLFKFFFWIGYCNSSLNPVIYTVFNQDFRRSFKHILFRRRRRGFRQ
In kind it is functional.

The target of test [2] is Beta-2 adrenergic receptor (Homo sapiens, UniProt P07550).
Sequence of Beta-2 adrenergic receptor (P07550 whole entry): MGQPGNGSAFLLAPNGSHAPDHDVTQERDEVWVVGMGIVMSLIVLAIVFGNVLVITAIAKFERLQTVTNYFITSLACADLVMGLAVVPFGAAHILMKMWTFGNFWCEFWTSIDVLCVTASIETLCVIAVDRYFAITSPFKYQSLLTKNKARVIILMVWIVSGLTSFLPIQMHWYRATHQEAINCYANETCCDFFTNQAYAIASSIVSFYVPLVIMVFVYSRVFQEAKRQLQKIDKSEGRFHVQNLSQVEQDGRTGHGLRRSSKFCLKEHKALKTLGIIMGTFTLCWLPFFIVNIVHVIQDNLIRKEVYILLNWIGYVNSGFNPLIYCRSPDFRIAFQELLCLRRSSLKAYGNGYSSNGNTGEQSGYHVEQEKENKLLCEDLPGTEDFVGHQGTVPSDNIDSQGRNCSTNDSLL
Test [3] has as its target T2, B2 bradykinin receptor (Homo sapiens, UniProt P30411).
T2 sequence (P30411 whole entry): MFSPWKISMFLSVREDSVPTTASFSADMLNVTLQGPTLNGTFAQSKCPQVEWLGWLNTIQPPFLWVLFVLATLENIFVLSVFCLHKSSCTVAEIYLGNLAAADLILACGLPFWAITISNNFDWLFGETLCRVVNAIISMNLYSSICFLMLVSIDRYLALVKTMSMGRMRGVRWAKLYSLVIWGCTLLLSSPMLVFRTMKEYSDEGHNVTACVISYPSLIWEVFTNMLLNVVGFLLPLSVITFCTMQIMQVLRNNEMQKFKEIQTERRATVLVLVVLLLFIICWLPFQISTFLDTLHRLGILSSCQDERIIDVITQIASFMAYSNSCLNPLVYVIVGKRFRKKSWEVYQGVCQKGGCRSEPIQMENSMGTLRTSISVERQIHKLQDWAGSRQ

Test [4] has as its target Voltage-dependent L-type calcium channel subunit alpha-1C (Rattus norvegicus, UniProt P22002). In kind it is functional.
The target of test [5] is T3, 5-hydroxytryptamine receptor 1A (Homo sapiens, UniProt P08908).
T3 sequence (P08908 whole entry): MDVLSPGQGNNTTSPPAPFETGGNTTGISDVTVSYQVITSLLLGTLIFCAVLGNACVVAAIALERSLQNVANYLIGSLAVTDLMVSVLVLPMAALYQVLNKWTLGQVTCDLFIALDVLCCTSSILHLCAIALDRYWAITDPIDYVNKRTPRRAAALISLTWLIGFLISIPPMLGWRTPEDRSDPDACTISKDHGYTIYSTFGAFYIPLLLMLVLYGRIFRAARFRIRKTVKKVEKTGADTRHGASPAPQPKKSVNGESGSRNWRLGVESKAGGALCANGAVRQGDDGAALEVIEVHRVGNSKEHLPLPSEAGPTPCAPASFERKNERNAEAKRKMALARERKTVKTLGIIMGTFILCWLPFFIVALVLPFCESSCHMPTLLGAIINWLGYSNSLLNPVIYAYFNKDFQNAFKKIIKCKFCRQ
In kind it is functional, cell-based.

For test [6], the target named is T4, 5-hydroxytryptamine receptor 3A (Homo sapiens, UniProt P46098).
T4 sequence (P46098 whole entry): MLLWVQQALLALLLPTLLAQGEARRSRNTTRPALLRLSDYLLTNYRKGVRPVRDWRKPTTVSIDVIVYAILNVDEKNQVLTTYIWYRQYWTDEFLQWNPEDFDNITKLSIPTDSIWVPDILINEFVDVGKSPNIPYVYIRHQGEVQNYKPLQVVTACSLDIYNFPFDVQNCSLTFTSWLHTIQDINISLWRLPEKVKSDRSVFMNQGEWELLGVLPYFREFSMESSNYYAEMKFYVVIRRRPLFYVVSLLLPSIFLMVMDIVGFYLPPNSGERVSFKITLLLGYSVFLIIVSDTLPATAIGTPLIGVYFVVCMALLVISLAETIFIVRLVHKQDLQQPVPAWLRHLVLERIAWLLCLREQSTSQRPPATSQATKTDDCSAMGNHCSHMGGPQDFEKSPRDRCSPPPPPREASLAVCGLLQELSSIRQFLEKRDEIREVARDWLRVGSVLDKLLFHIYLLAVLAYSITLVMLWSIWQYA
In kind it is functional.

In test [7] the target is T5, Prostaglandin G/H synthase 1 (Rattus norvegicus, UniProt Q63921).
T5 sequence (Q63921 whole entry): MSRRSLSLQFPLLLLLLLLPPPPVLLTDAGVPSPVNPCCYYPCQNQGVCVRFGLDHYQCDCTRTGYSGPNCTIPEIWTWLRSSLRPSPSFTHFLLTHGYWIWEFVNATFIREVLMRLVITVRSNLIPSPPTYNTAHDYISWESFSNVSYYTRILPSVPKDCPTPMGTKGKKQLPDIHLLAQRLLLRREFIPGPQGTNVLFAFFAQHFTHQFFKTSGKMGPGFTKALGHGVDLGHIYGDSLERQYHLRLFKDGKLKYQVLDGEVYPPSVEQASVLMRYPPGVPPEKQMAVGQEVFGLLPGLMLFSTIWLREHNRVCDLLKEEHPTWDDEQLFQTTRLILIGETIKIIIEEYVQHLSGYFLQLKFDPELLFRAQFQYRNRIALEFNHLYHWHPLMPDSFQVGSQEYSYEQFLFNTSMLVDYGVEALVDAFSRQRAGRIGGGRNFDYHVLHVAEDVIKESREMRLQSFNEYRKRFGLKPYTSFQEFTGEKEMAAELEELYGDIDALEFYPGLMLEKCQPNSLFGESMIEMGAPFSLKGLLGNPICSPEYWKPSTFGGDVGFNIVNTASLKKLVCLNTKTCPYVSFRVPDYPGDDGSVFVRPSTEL
In kind it is functional.

In test [8] the target is Sodium-dependent noradrenaline transporter (Homo sapiens, UniProt P23975).
Sequence of Sodium-dependent noradrenaline transporter (P23975 whole entry): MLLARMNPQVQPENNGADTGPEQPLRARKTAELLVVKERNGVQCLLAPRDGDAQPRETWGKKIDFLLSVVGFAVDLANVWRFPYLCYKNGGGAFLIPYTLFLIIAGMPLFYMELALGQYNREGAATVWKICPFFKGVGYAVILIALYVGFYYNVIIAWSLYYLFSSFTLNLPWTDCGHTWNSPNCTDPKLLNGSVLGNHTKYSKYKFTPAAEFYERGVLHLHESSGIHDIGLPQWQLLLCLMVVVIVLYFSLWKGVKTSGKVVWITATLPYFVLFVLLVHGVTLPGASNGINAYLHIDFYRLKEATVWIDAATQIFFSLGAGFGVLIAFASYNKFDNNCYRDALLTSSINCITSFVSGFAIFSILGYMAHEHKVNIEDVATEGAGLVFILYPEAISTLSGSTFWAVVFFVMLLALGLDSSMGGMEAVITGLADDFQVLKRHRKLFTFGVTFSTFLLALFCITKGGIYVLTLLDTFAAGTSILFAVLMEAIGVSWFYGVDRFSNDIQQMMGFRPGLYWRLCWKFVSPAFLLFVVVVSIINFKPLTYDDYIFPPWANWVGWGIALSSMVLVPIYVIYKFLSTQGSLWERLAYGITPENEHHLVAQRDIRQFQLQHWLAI
Also: assay procedure not described here.

Sequence of Voltage-dependent L-type calcium channel subunit alpha-1C (P22002 whole entry): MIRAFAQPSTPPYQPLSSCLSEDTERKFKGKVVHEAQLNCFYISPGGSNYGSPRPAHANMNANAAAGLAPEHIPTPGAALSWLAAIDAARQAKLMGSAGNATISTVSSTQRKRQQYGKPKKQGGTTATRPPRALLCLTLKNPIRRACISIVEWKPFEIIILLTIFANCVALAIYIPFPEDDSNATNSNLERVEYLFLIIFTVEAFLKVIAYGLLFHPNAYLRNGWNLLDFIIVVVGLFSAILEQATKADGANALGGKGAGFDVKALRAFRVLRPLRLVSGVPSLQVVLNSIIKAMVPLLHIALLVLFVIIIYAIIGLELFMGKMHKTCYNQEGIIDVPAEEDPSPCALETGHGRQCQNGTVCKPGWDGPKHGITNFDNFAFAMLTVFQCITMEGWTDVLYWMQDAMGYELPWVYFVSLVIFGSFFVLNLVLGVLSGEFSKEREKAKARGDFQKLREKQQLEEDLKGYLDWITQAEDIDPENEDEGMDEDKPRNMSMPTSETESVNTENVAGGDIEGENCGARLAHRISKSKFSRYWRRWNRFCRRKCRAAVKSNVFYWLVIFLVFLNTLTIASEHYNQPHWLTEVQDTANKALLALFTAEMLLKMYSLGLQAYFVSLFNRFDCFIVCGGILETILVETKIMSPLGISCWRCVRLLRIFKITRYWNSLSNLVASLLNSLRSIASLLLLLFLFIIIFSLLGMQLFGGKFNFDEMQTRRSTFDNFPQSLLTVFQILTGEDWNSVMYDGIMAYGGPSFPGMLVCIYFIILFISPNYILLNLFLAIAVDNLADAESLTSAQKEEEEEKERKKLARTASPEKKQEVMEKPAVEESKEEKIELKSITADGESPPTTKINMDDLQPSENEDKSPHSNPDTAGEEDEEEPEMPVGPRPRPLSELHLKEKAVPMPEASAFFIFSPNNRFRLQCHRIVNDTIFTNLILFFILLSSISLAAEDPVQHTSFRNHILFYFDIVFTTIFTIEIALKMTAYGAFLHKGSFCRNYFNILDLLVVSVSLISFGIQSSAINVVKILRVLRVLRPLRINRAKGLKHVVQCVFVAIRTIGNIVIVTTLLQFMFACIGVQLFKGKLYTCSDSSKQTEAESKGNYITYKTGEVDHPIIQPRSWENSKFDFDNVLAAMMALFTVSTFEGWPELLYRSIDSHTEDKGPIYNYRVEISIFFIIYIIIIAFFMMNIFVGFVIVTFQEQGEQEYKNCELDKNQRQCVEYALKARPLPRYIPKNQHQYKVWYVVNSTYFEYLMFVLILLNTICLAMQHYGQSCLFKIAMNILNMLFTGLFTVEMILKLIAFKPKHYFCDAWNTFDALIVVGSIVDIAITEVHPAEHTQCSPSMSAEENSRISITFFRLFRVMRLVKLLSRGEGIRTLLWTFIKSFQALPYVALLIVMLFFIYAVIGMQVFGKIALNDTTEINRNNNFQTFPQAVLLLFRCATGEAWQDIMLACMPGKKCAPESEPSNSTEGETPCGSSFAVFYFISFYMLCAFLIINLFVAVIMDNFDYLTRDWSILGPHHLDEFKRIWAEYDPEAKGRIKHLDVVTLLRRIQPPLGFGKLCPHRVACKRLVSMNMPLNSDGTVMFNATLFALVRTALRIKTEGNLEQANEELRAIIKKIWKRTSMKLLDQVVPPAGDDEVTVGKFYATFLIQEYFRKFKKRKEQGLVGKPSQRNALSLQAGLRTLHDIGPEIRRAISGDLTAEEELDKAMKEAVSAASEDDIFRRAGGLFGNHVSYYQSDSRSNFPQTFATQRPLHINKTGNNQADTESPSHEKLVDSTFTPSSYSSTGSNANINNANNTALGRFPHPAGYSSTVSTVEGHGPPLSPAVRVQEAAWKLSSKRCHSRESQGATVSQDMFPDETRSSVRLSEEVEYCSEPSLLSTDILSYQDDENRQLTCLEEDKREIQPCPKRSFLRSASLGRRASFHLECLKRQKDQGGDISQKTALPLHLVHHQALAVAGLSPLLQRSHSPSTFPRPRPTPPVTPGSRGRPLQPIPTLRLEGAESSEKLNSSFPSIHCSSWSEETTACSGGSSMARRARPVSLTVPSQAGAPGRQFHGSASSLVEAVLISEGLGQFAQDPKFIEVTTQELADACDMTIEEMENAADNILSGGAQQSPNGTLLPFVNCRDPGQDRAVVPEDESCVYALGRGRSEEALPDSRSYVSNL

Regarding `CC(=O)c1ccc(S(=O)(=O)NC(=O)NC2CCCCC2)cc1` [ACETOHEXAMIDE], the concentration at half-maximal activity (AC50) was more than 10 µM in test [1]; more than 10 µM in test [2]; more than 10 µM in test [3]; more than 10 µM in test [4]; more than 30 µM in test [5]; more than 30 µM in test [6]. Further, the AC50 in test [7] and in test [8] was more than 10 µM each time.
`CCC1(CCC(C)C)C(=O)NC(=O)NC1=O` [AMOBARBITAL]: the concentration at half-maximal activity (AC50) in test [1] is more than 10 µM; in test [2], more than 10 µM; in test [3] it was more than 10 µM; in test [4], more than 10 µM; in test [5], more than 10 µM; in test [6] it was more than 30 µM. In addition, the concentration at half-maximal activity (AC50) in test [7] and in test [8] was more than 10 µM throughout.
Consider `COc1ccc(C2C(=O)c3ccccc3C2=O)cc1` [ANISINDIONE], for which the AC50 was more than 10 µM in test [1]; more than 10 µM in test [2]; more than 10 µM in test [3]; more than 10 µM in test [4]; more than 10 µM in test [5]; more than 30 µM in test [6]. In addition, the AC50 in test [7] was 13 µM; in test [8], more than 10 µM.
On to `O=C(O)c1ccc(NC(=O)[C@H](Cc2ccc(O)cc2)NC(=O)c2ccccc2)cc1` [BENTIROMIDE], for which the concentration at half-maximal activity (AC50) was more than 10 µM in test [1]; more than 10 µM in test [2]; more than 10 µM in test [3]; more than 10 µM in test [4]; more than 10 µM in test [5]; more than 30 µM in test [6]. Further, the AC50 in test [7] and in test [8] was more than 10 µM in each case.
`NS(=O)(=O)c1cc2c(cc1Cl)N=C(CSCc1ccccc1)NS2(=O)=O` [BENZTHIAZIDE]: the AC50 is 1.5 µM in test [1]; more than 10 µM in test [2]; more than 10 µM in test [3]; more than 10 µM in test [4]; more than 10 µM in test [5]; more than 10 µM in test [6]. The half-maximal activity concentration (AC50) in test [7] and in test [8] was more than 10 µM throughout.
On to `CC(C)[C@@H](C)/C=C/[C@@H](C)[C@H]1CC[C@H]2/C(=C/C=C3\C[C@@H](O)CC[C@@H]3C)CCC[C@]12C` [DIHYDROTACHYSTEROL], for which the AC50 was more than 10 µM in test [1]; more than 10 µM in test [2]; more than 10 µM in test [3]; more than 10 µM in test [4]; more than 10 µM in test [5]; more than 30 µM in test [6]. The half-maximal activity concentration (AC50) in test [7] and in test [8] was more than 10 µM in each case.
In the case of `CC(=O)[C@H]1CC[C@H]2[C@@H]3C[C@H](C)C4=CC(=O)CC[C@]4(C)[C@H]3[C@@H](O)C[C@]12C` [MEDRYSONE], the AC50 in test [1] was more than 10 µM; in test [2] it was more than 10 µM; in test [3], more than 10 µM; in test [4], more than 10 µM; in test [5] it was more than 10 µM; in test [6], more than 30 µM. The AC50 in test [7] and in test [8] was more than 10 µM throughout.
Take `CCCC(C)(COC(N)=O)COC(N)=O` [MEPROBAMATE]: the AC50 in test [1] is more than 30 µM; in test [2], more than 10 µM; in test [3] it was more than 10 µM; in test [4] it was more than 10 µM; in test [5], more than 10 µM; in test [6], more than 30 µM. Further, the AC50 in test [7] and in test [8] was more than 10 µM throughout.
For `COc1ccc2cc(CCC(C)=O)ccc2c1` [NABUMETONE], the concentration at half-maximal activity (AC50) in test [1] was more than 30 µM; in test [2], more than 10 µM; in test [3] it was more than 10 µM; in test [4] it was more than 10 µM; in test [5] it was more than 10 µM; in test [6], more than 30 µM. Moreover, the AC50 is more than 10 µM in test [7] and 20 µM in test [8].
With `O=C(c1cc(Cc2n[nH]c(=O)c3ccccc23)ccc1F)N1CCN(C(=O)C2CC2)CC1` [OLAPARIB], the AC50 in test [1] was more than 10 µM; in test [2], more than 30 µM; in test [3], more than 30 µM; in test [4], more than 10 µM; in test [5], more than 10 µM; in test [6], more than 30 µM. The AC50 in test [7] and in test [8] was more than 30 µM in each case.

As a reminder, the AC50 is the concentration at which the activity in the assay is half-maximal.

For the origin of these results see ChEMBL document CHEMBL5291721, “A preclinical secondary pharmacology resource illuminates target-adverse drug reaction associations of marketed drugs” (Nat Commun, 2023).
